Where two headings read alike, the source gives them in different places.
Columns and labels:
Format in all cases: cell-based, human
[1] = system: MCF10A WT and MCF10A CDH1^−/− cells; assay: Single-point confirmation screen (10 μM, CTB, 384-well), viability differential between isogenic lines; settings: averaged between three biological replicates, Supplementary Table 2
Description: In the single-point confirmation screen, compounds that preferentially harm MCF10A CDH1^−/− cells compared to the wild-type cells were now identified. Three biological replicates were performed for each of the isogenic cell lines at a single-point (10 μM) in 384-well plates. All assay plates had acceptable Z’ values above 0.4 and 23 out of 48 plates had values above 0.6. The POC R^2 correlation between the three biological replicates for the two isogenic cell lines were all above 0.8 (data not shown). A cell viability differential of ‘MCF10A WT POC – MCF10A CDH1^−/− POC’ was used to select hits. An arbitrary threshold for the mean differential of >8.5% was chosen in order to maximize the number of hits being screened in the subsequent stages and to reduce false negatives.
To incorporate a measure of the variability between replicates of the screen into the hit selection process, a further requirement was included of a minimum of 2/3 biological replicates having viability differentials >8.5%. This removed a further 52 compounds shown in blue with only one out of three biological replicates crossing the Y = X-8.5 line independent of the mean. In total, 256 compounds were above the hit selection threshold, thereby preferentially killing E-cadherin negative cells. The mean POC differential of the 256 hits was 17.6% +/− 7.1 (+/−SD), with the highest being 48% for SLEC-1 (Synthetic Lethal E-Cadherin compound 1). […] The resulting 256 SL compounds were then assayed in an 11-point screen for EC50 determination.
(§1) MCF10A WT and MCF10A CDH1^−/− cells were seeded into Corning black walled, clear bottom 384-well plates (assay plates) using a multidrop 384 reagent dispenser (Thermo Fisher Scientific) and a total volume of 50 μL per well.
As we have shown MCF10A CDH1^−/− cells have a prolonged lag to log phase growth of around 24 hours, in order to achieve a similar confluence at 72 hours post seeding MCF10A WT and MCF10A CDH1^−/− cell lines were seeded at 600 cells/well and 800 cells/well, respectively. […] At 72 hours post seeding, plates were removed from the incubator and left for 30 minutes at RT to equalise the temperature across all wells of the plates and reduce fluorescence-based edge effects before reading on an EnVision (PerkinElmer) at 550 nm excitation and 590 nm emission to quantify cell viability.
The coRFU values were then used to calculate the normalized readouts of percent of controls (Eq. 3) and the robust Z score (Eqs 4,5), where doxorubicin refers to an EC80 dose and DMSO was 0.2% v/v.3 coPOC=100×(SamplecoRFU−x¯doxorubicincoRFU)/(x¯DMSOcoRFU−x¯doxorubicincoRFU) 4 MAD=median([…]) 5 CorrectedrobustZscore=(SamplecoRFU−platemediancoRFU)/MAD

MCF10A CDH1^−/− cells = assay: 11-point dose-response screen, cell titre blue (CTB) viability; settings: for EC50: Homo sapiens, MCF-10A
Description: (§2) The 11-point dose-response screen evaluated a concentration range from 0.02 µM to 20 µM for both isogenic cell lines in duplicate biological replicates (Fig. 4). One limitation to metabolism-based cellular assays is that a change in read out (fluorescence, luminescence or absorbance) may not necessarily be caused by cell death and could instead result from a cessation of proliferation due to senescence or inhibited mitochondrial respiration. For this reason, a direct measurement of cell counts using cellular imaging of nuclei stained with Hoechst 33342 was also included at the 11-point screening stage. For the CTB 11-point screen all plates had acceptable Z’ values above 0.4, with the second biological replicate having 70% above 0.6 (Fig. 4A). The Z’ values for the high-content imaging (HCI) 11-point screen plates were above 0.4 for MCF10A WT, except one plate from biological replicate two with 0.396 (Fig. 4B). However, for MCF10A CDH1^−/− HCI data, only four plates were above a Z’ of 0.4 and the mean Z’ was 0.32 compared to a mean of 0.51 for MCF10A WT. A further quality metric known as the strictly standardized mean difference (SSMD)[40] is a less conservative approach for QC and a cut-off of >3 is generally used. The mean SSMD value was 7.04 for MCF10A WT and 5.27 for MCF10A CDH1^−/− plates and indicates the MCF10A CDH1^−/− HCI data was acceptable[41]. There was a good correlation between the top hits from the HCI and CTB 11-point screening with an overlap of 31 / 40 for the top 40 compounds selected from the eventual hit selection strategies.
as §1
(§3) As we have shown MCF10A CDH1^−/− cells have a prolonged lag to log phase growth of around 24 hours, in order to achieve a similar confluence at 72 hours post seeding MCF10A WT and MCF10A CDH1^−/− cell lines were seeded at 600 cells/well and 800 cells/well, respectively. Following seeding, plates were left for one hour at RT without stacking[46] and then centrifuged at 500 × g (RCF) for one minute. Plates were then transferred to an incubator at 37 °C and 5% CO2. At 24 hours post seeding, the MiniTrak robotic liquid handling system (Perkin Elmer) was used to transfer 352 compounds per 384-well library plate to the first 22 columns of a 384-well assay plate containing cells to achieve a 10 μM final compound concentration for the pilot, primary and single-point confirmation screens. For the 11-point dose-response screen, compounds were added to columns 1–22, but excluding edge rows A and P of the library plate to reduce edge-effects (Supplementary Fig. 2). The controls of DMSO (0.2% v/v), doxorubicin (EC80) and entinostat (EC50) were added into columns 23–24 of each assay plate (Supplementary Table 1). Cell titre blue[47] was made in-house in sterile PBS from 597 μM resazurin, 78 μM methylene blue, 1 mM potassium hexacyanoferrate (III) and 1 mM potassium hexacyanoferrate (II) trihydrate. At 69 hours post seeding, 16.7% v/v CTB was added to plates and they were incubated at 37 °C for 3 hours (Supplementary Fig. 1). At 72 hours post seeding, plates were removed from the incubator and left for 30 minutes at RT to equalise the temperature across all wells of the plates and reduce fluorescence-based edge effects before reading on an EnVision (PerkinElmer) at 550 nm excitation and 590 nm emission to quantify cell viability.
(§4) Supplementary Table 1. Killing control and SL control effective concentrations.
(§5) Doxorubicin EC80 0.3 µM 0.4 µM
(§6) MCF10A WT cells were seeded at 600/well and MCF10A CDH1-/- cells at 800/well in 384-well plates. Drugs
(§7) were added at 24 hours post seeding and CTB was used as an end-point assay. Concentrations were normalized

MCF10A WT cells = assay: as above; settings: Homo sapiens, MCF-10A, 11-point screen; for EC50: CTB, read-out: MCF10A WT CTB EC50
Description: as §2, §1, §3, §4, §5, §6, §7

Compound	Differential at 1-pt [1]	Differential at 20 μM (MCF10A CDH1^−/− cells; 11-point screen, MCF10A WT – MCF10A CDH1−/− POC at 20 μM)	EC50 (MCF10A CDH1^−/− cells; 11-point screen (0.02–20 µM), CTB values, averaged between two biological replicates, Supplementary Table 2, read-out: MCF10A CDH1 -/- EC50) [µM]	EC50 (MCF10A WT cells) [µM]	activity at 20 µM (MCF10A WT cells; viability of WT cells at highest concentration 20 μM, read-out: MCF10A WT POC at 20 μM) [%]	EC50 (MCF10A CDH1^−/− cells; 11-point screen, CTB, read-out: MCF10A CDH1^-/- CTB EC50) [µM]
COc1ccc2nc(C)cc(NCc3ccc(F)cc3)c2c1 [SLEC-11, N-(4-Fluorobenzyl)-6-methoxy-2-methylquinolin-4-amine]	17.42	106.45	6.96	> 20	100	
CC(O)CNCc1ccc(OCc2ccc(Cl)cc2Cl)cc1 (stereo not shown) [SLEC-8]				17.5		7.66

From article PMC6715681, “A high-throughput screen to identify novel synthetic lethal compounds for the treatment of E-cadherin-deficient cells” (Scientific Reports, 2019)
